Results published in US12551429B2, “Oral care complexes and compositions” (Colgate-Palmolive Company, priority 2021, dated 2026).

What was measured:
[1] = Knoop hardness repair (% HR) of acid-etched human enamel after treatment and remineralization
Experimental: KHN is determined using the Knoop microhardness tester. A baseline measurement is taken on a sound enamel sample without treatment (KHN0), on an acid-etched enamel sample (KHNe), and on an acid-etched enamel sample after treatment (KHNt). Each KHN measurement is the average of 5 indentations made on the same specimen at a force of 0.05 kg for 15 seconds. A value for Percentage of Hardness Repair (% HR) is calculated according to the following formula: % HR=(KHNt−KHNe)/(KHN0−KHNe)×100
Etched enamel samples are prepared by treatment with 1% aqueous citric acid (pH 3.6) for 10 minutes, followed by rinsing with deionized water. […]

[2] = Surface roughness change (% R) of etched human enamel, 3D laser scanning confocal microscope; details: Example 2, % R=(Rt−Re)/(Re)×100, four days of treatment, negative = smoother
Excerpt: Human molar teeth are obtained, and the root portion of the molar is removed. The crown of the molar is cut longitudinally into slices 2 mm thick using a water-cooled low-speed diamond saw. The human enamel samples are then mounted in acrylic resin. The embedded samples are grinded and polished with a sequential series of wet 400 to 4000 grit silicon carbide papers and nylon adhesive backed discs with 0.25 micron diamond or colloidal silica coating. The polished slices are rinsed thoroughly with distilled water three times, sonicated in a water bath for five minutes, then rinsed again and allowed to air dry.
(§1) Etched enamel samples are prepared by treatment with 1% aqueous citric acid (pH 3.6) for 10 minutes, followed by rinsing with deionized water.
Etched human enamel samples are treated with 50 microliters of polyelectrolyte solutions A-F, or with control solutions, for ten minutes at room temperature. […]
In addition, surface roughness and morphology are evaluated using a 3D laser scanning confocal microscope. […] Roughness is therefore measured in units of micrometers. Values for roughness of the acid etched enamel sample (Re) and for the acid-etched enamel sample after treatment (Rt) are determined. Percentage of roughness (% R) is calculated as follows: % R=(Rt−Re)/(Re)×100

[3] = Knoop hardness repair (% HR) of acid-etched bovine enamel after treatment and remineralization; details: for % HR (Percentage Hardness Repair): bovine enamel, 40 microliters
Experimental: Bovine enamel blocks are obtained from sound bovine incisors without defects. The labial surface of the bovine teeth is cut to provide enamel specimens of about 3×3×2 mm in size. The enamel layer is about 1 mm thick and the dentin left in the specimen is about 1 mm thick.
as §1
Etched bovine enamel samples are treated with 50 microliters of polyelectrolyte solutions A-F, or with sodium fluoride solution or water, for ten minutes at room temperature. The samples are then rinsed with deionized water and then they are immersed in 50 mL of Remineralization Solution (0.2205 g/L CaCl2·2H2O, 0.1225 g/L KH2PO4, 9.6915 g/L KCl and 4.766 g/L HEPEs buffer, pH adjusted to 7 with NaOH) overnight at 37° C. The enamel samples are then rinsed with deionized water for 50 seconds and then air dried.
Knoop Hardness (KHN) is a measure of hardness of a material calculated by measuring the indentation produced by a diamond tip that is pressed onto the surface of a sample. Using a calibrated microscope, the area of the impression can be determined, and from the area of the indentation (D) in […], and the applied load (F) in kilograms force, the Knoop Hardness is calculated as: KHN=14.229(F/D^2). Knoop hardness has units of kgf/mm^2.
KHN is determined using the Knoop microhardness tester. […] A value for Percentage of Hardness Repair (% HR) is calculated according to the following formula: % HR=(KHNt−KHNe)/(KHN0−KHNe)×100
Bovine and human enamel blocks are prepared and treated with polyelectrolyte test solutions as described in Examples 1 and 2, respectively, except that 40 microliters of the polyelectrolyte solution are applied to the etched enamel surface, instead of 50 microliters. Koop Hardness (KHN) and Percentage Hardness Repair (% HR) are determined as described in Examples 1 and 2. […]

[4] = Step height repair of etched bovine enamel blocks (sound/damaged/repaired method, Keyence microscope)
Experimental: (§2) The left half of the block (“sound”) is covered using an acid-resistant nail polish, which is then allowed to air dry. The right half of the block (“damaged” and “repaired”) is then treated with 1% citric acid (pH 3.6) for ten minutes to etch the surface. After the treatment, the surface of the block is rinsed with deionized water. The top right corner of the block (“damaged”) is then covered with the same acid-resistant nail polish and air dried. The test formulation is then applied to the bottom right corner of the block (“repaired”), for example, for a ten-minute treatment, followed by rinsing with deionized water. Following the treatment, the enamel blocks are immersed in a Remineralization Solution (0.2205 g/L CaCl2·2H2O, 0.1225 g/L KH2PO4, 9.6915 g/L KCl and 4.766 g/L HEPEs buffer, pH adjusted to 7 with NaOH) overnight at 37° C., and the process repeated for 2-4 days (the blocks immersed daily in fresh remineralization solution). Following this, the blocks are removed, rinsed with deionized water and air dried. The nail polish covers are then removed using acetone solvent, and the surface of the enamel blocks is visualized, for example, by light microscopy, confocal laser scanning microscopy, scanning probe microscopy, or scanning electron microscopy. […]
(§3) Enamel repair is also evaluated using the method described in Example 4. […]

[5] = Gloss recovery (% GR) of acid-etched enamel, Novo-Curve glossmeter; design: species or system bovine; details: Example 5
Experimental: Enamel repair is also evaluated using the method described in Example 4. A Keyence microscope is used to capture the surface morphology and to measure the step height of the treated samples. A Phenom ProX Desktop scanning electron microscope is used to observe the repaired enamel crystals. Bovine enable blocks are treated with either water, the sodium fluoride solution, or the 10 mg/mL ePL+0.06 mg/mL malic acid solution (Solution E above).
The effect of treatments on enamel appearance is also investigated by measuring the surface gloss and observing the surface under a microscope. The gloss values are measured using a Novo-Curve glossmeter. A glossmeter provides a quantifiable way of measuring gloss intensity, and the measurement relates to the amount of reflected light from a black glass standard with a defined refractive index. The ratio of reflected light for a test specimen, compared to the ratio for the gloss standard, is recorded as gloss units (GU). A gloss measurement of >70 GU is considered high gloss, while medium gloss is 10-70 GU, and low gloss is <10 GU.
A baseline measurement is taken on a sound enamel sample without treatment (G0), on an acid-etched enamel sample (Ge), and on an acid-etched enamel sample after treatment (Gt). The percentage of gloss recovery (% GR) is calculated according to the following formula: % GR=(Gt−Ge)/(G0−Ge)×100.

[6] = Light microscopy of enamel surface morphology (sound/damaged/repaired method); details: Example 5; bovine enamel blocks
Experimental: as §2, §3

[7] = Scanning electron microscopy of enamel surface; details: Example 5; bovine enamel blocks
Experimental: as §2, §3

For `O=C(O)CC(O)C(=O)O` (stereo not drawn) [Malic acid, malic acid], the “% HR (Percentage of Hardness Repair)” value ([1]; Example 2, 50 microliters for ten minutes, overnight remineralization, repeated daily for four days) was 19.8% and the “% R (Percentage of roughness)” value [2] was −1.6%.
With `[F-].[Na+]` [NaF, sodium fluoride] the “% HR (Percentage of Hardness Repair)” value ([3]; Example 1, bovine enamel etched with 1% citric acid, 50 microliters for ten minutes, Remineralization Solution overnight at 37° C.) was 27.9%, the “% HR (Percentage Hardness Repair)” value ([3]; Example 3, solutions pH 7.0) was 35.9% and the “% HR (Percentage Hardness Repair)” value ([3]; Example 5, solutions about pH 6.0, 1 day of treatment) was 41.0%. For the same molecule, the “% HR (Percentage Hardness Repair)” value ([1]; Example 3, 40 microliters, solutions pH 7.0, 4 days of treatments) was 49.3%, the “restoration of enamel height in 3-D Keyence photomicrographs (FIG. 3)” value ([4]; Example 5) was “do not restore the enamel to the original height” and the “% Repair (Step height)” value ([4]; Example 5, calculated from change in step height) was 65.3%. The “% GR (percentage of gloss recovery)” value ([5]; 2 days of remineralization) was 12.7%, the “surface gloss recovery, in words” value ([5]; after 2 days of remineralization) was “slightly better than water treatment” and the “surface morphology of the repaired side under the microscope (FIG. 2)” value [6] was “a clear interface between “damaged” and “repaired” sides is observed”. The “repair of gaps or cracks in the enamel surface by scanning electron microscopy” value [7] was “some healing”.
